Literature values as cited in paper PMC10046020, “In Silico Screening and Optimization of Cell-Penetrating Peptides Using Deep Learning Methods” (Biomolecules, 2023).

conditions: Spreadsheet S1: 150 CPP and 150 non-CPP peptides collected from CellPPD, MLCPP, CPPsite 2.0, Lifetein and other publications; cited from earlier work
Description: Supplement biomolecules-13-00522-s001.zip/biomolecules-2162660_Supplementary Spreadsheets S1 Test Set.csv, table | column: class || Supplement biomolecules-13-00522-s001.zip/biomolecules-2162660_Supplementary Spreadsheets S2 Train Set.csv, table | column: class

Row | Substance | class (CPP / Non-CPP), Test Set
1 | YGRKKRRQRRRYGRKKRRQRRR | CPP
2 | RGGRLCYCRRRFCVCVGR | CPP
3 | DVVRVWFCNRRQKGKR | CPP
4 | GRKKRRQRRRG | CPP
5 | VKRFKKFFRKLKKLV | CPP
6 | RQIKIWFQNRRMKWKKC | CPP
7 | WRRRYRRWRRRRRWRRRPRR | CPP
8 | LLKTTELLKTTELLKTTS | Non-CPP
9 | GNGEQREMAVSRLRDCLDRQA | CPP
10 | PVVHLTLRQAGDDFGR | Non-CPP
11 | KLFNGNEVCLDPKEKWVQKVVQIFLK | Non-CPP
12 | YGDCLPHLKLCKENKDCCSKKCKRRGTNIEKRCR | CPP
13 | LLGKGNLKALAALAKKIL | Non-CPP
14 | VKKKKIKREIKIAAQRYGRELRRMADEFHV | CPP
15 | SWFASTGGRDSKIDVWSLVP | Non-CPP
16 | YGFMELFDDVTAIFSIDHCQEEYYEQMANNVM | Non-CPP
17 | GRCTKSIPPICWPD | CPP
18 | IVMVGDGGVGKSAMTIQFIQSTFV | Non-CPP
19 | FLSFLLGPLIDLISKG | Non-CPP
20 | RRRRRRRRRRWWWWWW | CPP
21 | HDEFERHAEGTFTSDVFSYLEGQAAKEFIAWLVKGR | Non-CPP
22 | TERQGKIWFQNRRMK | Non-CPP

Row | Substance | class (CPP / Non-CPP), Test Set
23 | PPPPPPPPPPPLRR | CPP
24 | TFFYGGSRGKRNNFKTEEY | CPP
25 | GRKKRRERRRPPERKC | CPP
26 | FLGVVFKLASKVFPAVFGKV | Non-CPP
27 | KALKKLLAKWAAAKALL | CPP
28 | WEAVVAYGRKKRRQRRR | CPP
29 | RLHRRLHRRLHRLHRRLHRLHRRLHRRLH | CPP
30 | GRKKHRQPPQC | Non-CPP
31 | AVNANFGWQDKRFSTFG | Non-CPP
32 | FKCRRWQWRMKKLGAPSITCVRRAF | CPP
33 | HAQKQLSKTSWDFIEGEADDGITYSENIAAFKRIRLR | Non-CPP
34 | ADCKNFFWKTFTSC | Non-CPP
35 | ACSGRGSGCGSGRGSCG | CPP
36 | KLAAKLALKALKAA | Non-CPP
37 | HSDGIFTDSYSRYRKQMAVKKYLAAVLGKRYKQRVKNK | CPP
38 | MPVMFYFSARNEVALVLVYFNFMIMMMH | Non-CPP
39 | LLIILRRPIRKQAHAHSK | CPP
40 | TAMRAVDKLLLHLKKLFREGQFNRNFESIIICRDRT | CPP
41 | KLDFLGEGQFATVYKARDKNT | Non-CPP
42 | KKLALHALHLLALLWLHLAHLALKK | CPP
43 | EILLPNNYNAYESYKYPGMFIALSK | Non-CPP
44 | GRGDGPRRKKKKGPRRKKKKGPRR | CPP

same assay, conditions: Spreadsheet S2: peptides collected from CellPPD, MLCPP, CPPsite 2.0, Lifetein and other publications; cited from earlier work

Row | Substance | class (CPP / Non-CPP), Train Set
45 | RRRRRRRGGKLAKLAKKLAKLAK | CPP

same assay, conditions: cited from earlier work

Row | Substance | class (CPP / Non-CPP), Test Set
46 | KIWFMNRRMK | Non-CPP
47 | VATIKSVSFYTRK | Non-CPP
48 | QIMISA | Non-CPP
49 | VIVTERVLLLVAP | Non-CPP
50 | RRRRRRRRC | CPP
51 | RKKAAA | CPP
52 | IPLVVPLC | CPP
53 | KNNLKECGLY | CPP
54 | QEHDYGNLDLCN | Non-CPP
55 | GSSGMIPFPRV | Non-CPP
56 | NYQRRCKNQN | CPP
57 | FHFHFRFR | CPP
58 | RRRRRHHH | CPP
59 | ENGPDQWSKLYP | Non-CPP
60 | YGRGGRRGRRR | CPP
